Reference: patent US11554171B2, “Compounds and methods for the targeted degradation of bromodomain-containing proteins” (Arvinas Operations, Inc., priority 2015, dated 2023)

Tested on: c-myc in 22RV-1 cells
Experiment: Human c-myc ELISA assay
Assay type: cell-based
Conditions: Homo sapiens; for Emax: 22Rv1, 18 h, read-out: Degradation of BRD4: Maximum inhibition (%) c-Myc ELISA in 22RV1 cells; for DC50: 22Rv1, read-out: Degradation of BRD4: DC50 (uM) c-Myc ELISA in 22RV1 cells
Procedure, shortened: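 c-myc levels measured by ELISA in RIPA lysates of 22RV-1 cells, calibrated with a 333-0 pg/ml standard curve. Lysates came from cells exposed for 18 h to an 8-point, 1:3 dose series starting at 300 nM or 1 μM final in 0.1% DMSO. Suppression potency given as DC50.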

DC50 [µM] | SMILES | Emax [%]
0.1 to 1 | CC(=O)N[C@H](C(=O)N1C[C@H](O)C[C@H]1C(=O)NCc1ccc(-c2scnc2C)cc1OCCOCCCOc1ccc(C2=N[C@@H](CC(=O)Nc3ccccc3)c3nnc(C)n3-c3sc(C)c(C)c32)cc1)C(C)(C)C [Example 181, (2S,4R)-1-[(2S)-2-acetamido-3,3-dimethylbutanoyl]-4-hydroxy-N-{[4-(4-methyl-1,3-thiazol-5-yl)-2-[2-(3-{4-[(9S)-4,5,13-trimethyl-9-[(phenylcarbamoyl)methyl]-3-thia-1,8,11,12-tetraazatricyclo[8.3.0.0^2,^6]trideca-2(6),4,7,10,12-pentaen-7-yl]phenoxy}propoxy)ethoxy]phenyl]methyl}pyrrolidine-2-carboxamide] | 80.5
< 0.01 | Cc1ncsc1-c1ccc([C@H](C)NC(=O)[C@@H]2C[C@@H](O)CN2C(=O)[C@@H](NC(=O)COCCCOC2CN(C(=O)C[C@@H]3N=C(c4ccc(Cl)cc4)c4c(sc(C)c4C)-n4c(C)nnc43)C2)C(C)(C)C)cc1 [Example 182] | 100
0.01 to 0.1 | Cc1ncsc1-c1ccc(CNC(=O)[C@@H]2C[C@@H](O)CN2C(=O)[C@@H](NC(=O)COCCCOc2ccc3c(c2)c2c(C(N)=O)cc(-c4c(C)noc4C)cc2n3Cc2ccccc2)C(C)(C)C)cc1 [Example 184] | 91.5
0.01 to 0.1 | Cc1ncsc1-c1ccc([C@H](C)NC(=O)[C@@H]2C[C@@H](O)CN2C(=O)[C@@H](NC(=O)[C@@H]2CC[C@H](COCCCNC(=O)C[C@@H]3N=C(c4ccc(Cl)cc4)c4c(sc(C)c4C)-n4c(C)nnc43)O2)C(C)(C)C)cc1 [Example 186] | 94.5
0.01 to 0.1 | Cc1ncsc1-c1ccc([C@H](C)NC(=O)[C@@H]2C[C@@H](O)CN2C(=O)[C@@H](NC(=O)[C@H]2CC[C@@H](COCCCNC(=O)C[C@@H]3N=C(c4ccc(Cl)cc4)c4c(sc(C)c4C)-n4c(C)nnc43)O2)C(C)(C)C)cc1 [Example 187] | 98.5
< 0.01 | Cc1ncsc1-c1ccc([C@H](C)NC(=O)[C@@H]2C[C@@H](O)CN2C(=O)[C@@H](NC(=O)/C=C/c2cc(F)cc(OC(C)CNC(=O)C[C@@H]3N=C(c4ccc(Cl)cc4)c4c(sc(C)c4C)-n4c(C)nnc43)c2)C(C)(C)C)cc1 (stereo partly shown) [Example 188] | 95.4
0.01 to 0.1 | Cc1ncsc1-c1ccc([C@H](C)NC(=O)[C@@H]2C[C@@H](O)CN2C(=O)[C@@H](NC(=O)COc2ccnc(O[C@H]3C[C@@H](NC(=O)C[C@@H]4N=C(c5ccc(Cl)cc5)c5c(sc(C)c5C)-n5c(C)nnc54)C3)c2)C(C)(C)C)cc1 [Example 189] | 95.9
0.01 to 0.1 | Cc1ncsc1-c1ccc(CNC(=O)[C@@H]2C[C@@H](O)CN2C(=O)[C@@H](NC(=O)COc2ccccc2O[C@H]2C[C@@H](NC(=O)C[C@@H]3N=C(c4ccc(Cl)cc4)c4c(sc(C)c4C)-n4c(C)nnc43)C2)C(C)(C)C)cc1 [Example 190] | 91
< 0.01 | Cc1ncsc1-c1ccc([C@H](C)NC(=O)[C@@H]2C[C@@H](O)CN2C(=O)[C@@H](NC(=O)CCc2ccnc(O[C@H]3C[C@@H](NC(=O)C[C@@H]4N=C(c5ccc(Cl)cc5)c5c(sc(C)c5C)-n5c(C)nnc54)C3)c2)C(C)(C)C)cc1 [Example 191] | 95
< 0.01 | Cc1ncsc1-c1ccc([C@H](C)NC(=O)[C@@H]2C[C@@H](O)CN2C(=O)[C@@H](NC(=O)CCc2ccnc(O[C@H]3C[C@H](NC(=O)C[C@@H]4N=C(c5ccc(Cl)cc5)c5c(sc(C)c5C)-n5c(C)nnc54)C3)c2)C(C)(C)C)cc1 [Example 192] | 93
< 0.01 | Cc1ncsc1-c1ccc([C@H](C)NC(=O)[C@@H]2C[C@@H](O)CN2C(=O)[C@@H](NC(=O)Cc2cccc(O[C@H]3C[C@H](NC(=O)C[C@@H]4N=C(c5ccc(Cl)cc5)c5c(sc(C)c5C)-n5c(C)nnc54)C3)c2)C(C)(C)C)cc1 [Example 194] | 92.4
< 0.01 | Cc1ncsc1-c1ccc([C@H](C)NC(=O)[C@@H]2C[C@@H](O)CN2C(=O)[C@@H](NC(=O)/C=C/c2cc(O[C@@H](C)CNC(=O)C[C@@H]3N=C(c4ccc(Cl)cc4)c4c(sc(C)c4C)-n4c(C)nnc43)ccc2F)C(C)(C)C)cc1 [Example 196] | 94.5
< 0.01 | Cc1ncsc1-c1ccc([C@H](C)NC(=O)[C@@H]2C[C@@H](O)CN2C(=O)[C@@H](NC(=O)/C=C/c2cc(O[C@H](C)CNC(=O)C[C@@H]3N=C(c4ccc(Cl)cc4)c4c(sc(C)c4C)-n4c(C)nnc43)ccc2F)C(C)(C)C)cc1 [Example 197] | 91.5
> 1 | Cc1ncsc1-c1ccc(CNC(=O)[C@@H]2C[C@@H](O)CN2C(=O)[C@@H](C(C)C)n2cc(-c3cccc(O[C@@H](C)CNC(=O)C[C@@H]4N=C(c5ccc(Cl)cc5)c5c(sc(C)c5C)-n5c(C)nnc54)c3)cn2)cc1 [Example 198] | 16

SMILES | DC50 [µM] | Emax [%]
Cc1ncsc1-c1ccc([C@H](C)NC(=O)[C@@H]2C[C@@H](O)CN2C(=O)[C@@H](NC(=O)CCc2cc(F)cc(O[C@H]3C[C@@H](NC(=O)C[C@@H]4N=C(c5ccc(Cl)cc5)c5c(sc(C)c5C)-n5c(C)nnc54)C3)c2)C(C)(C)C)cc1 [Example 183, (2S,4R)-1-[(2S)-2-(3-{3-fluoro-5-[(1,3-cis)-3-{2-[(9S)-7-(4-chlorophenyl)-4,5,13-trimethyl-3-thia-1,8,11,12-tetraazatricyclo[8.3.0.0^2,^6]trideca-2(6),4,7,10,12-pentaen-9-yl]acetamido}cyclobutoxy]phenyl}propanamido)-3,3-dimethylbutanoyl]-4-hydroxy-N-[(1S)-1-[4-(4-methyl-1,3-thiazol-5-yl)phenyl]ethyl]pyrrolidine-2-carboxamide] | < 0.01 | 99
Cc1ncsc1-c1ccc([C@H](C)NC(=O)[C@@H]2C[C@@H](O)CN2C(=O)[C@@H](NC(=O)Cc2ccc(O[C@H]3C[C@@H](NC(=O)C[C@@H]4N=C(c5ccc(Cl)cc5)c5c(sc(C)c5C)-n5c(C)nnc54)C3)cc2)C(C)(C)C)cc1 [Example 185, (2S,4R)-1-[(2S)-3,3-dimethyl-2-(2-{4-[(1s,35)-3-{2-[(9S)-7-(4-chlorophenyl)-4,5,13-trimethyl-3-thia-1,8,11,12-tetraatetraazatricyclo[8.3.0.0^2,^6]trideca-2(6),4,7,10,12-pentaen-9-yl]acetamido}cyclobutoxy]phenyl}acetamido)butanoyl]-4-hydroxy-N-[(1S)-1-[4-(4-methyl-1,3-thiazol-5-yl)phenyl]ethyl]pyrrolidine-2-carboxamide] | < 0.01 | 99.5
Cc1ncsc1-c1ccc([C@H](C)NC(=O)[C@@H]2C[C@@H](O)CN2C(=O)[C@@H](NC(=O)Cc2ccc(O[C@H]3C[C@H](NC(=O)C[C@@H]4N=C(c5ccc(Cl)cc5)c5c(sc(C)c5C)-n5c(C)nnc54)C3)cc2)C(C)(C)C)cc1 [Example 193, (2S,4R)-1-[(2S)-3,3-dimethyl-2-(2-{4-[(1,3trans)-3-{2-[(9S)-7-(4-chlorophenyl)-4,5,13-trimethyl-3-thia-1,8,11,12-tetraazatricyclo[8.3.0.0^2,^6]trideca-2(6),4,7,10,12-pentaen-9-yl]acetamido}cyclobutoxy]phenyl}acetamido)butanoyl]-4-hydroxy-N-[(1S)-1-[4-(4-methyl-1,3-thiazol-5-yl)phenyl]ethyl]pyrrolidine-2-carboxamide] | < 0.01 | 100
